Assay results taken from the NIST ThermoML archive (doi:10.1016/j.jct.2019.05.017).
Numbers after ± are expanded uncertainties.

Legend:
[1] = 101.3 kPa, Liquid, Vibrating tube method
[2] = wn = mass fraction of the nth substance listed; details: 101.3 kPa, Liquid, Vibrating tube method

## NCCO [2-aminoethan-1-ol]
[1]; 303.15 K
  mass density: 1008.8 ± 2 kg/m3
[1]; 313.15 K
  mass density: 1000.9 ± 2 kg/m3

## CCOCCO [2-ethoxyethan-1-ol]
[1]; 293.15 K
  mass density: 929.7 ± 2 kg/m3
[1]; 298.15 K
  mass density: 925.2 ± 2 kg/m3
[1]; 303.15 K
  mass density: 920.7 ± 2 kg/m3
[1]; 308.15 K
  mass density: 916.1 ± 2 kg/m3
[1]; 313.15 K
  mass density: 911.5 ± 2 kg/m3
[1]; 318.15 K
  mass density: 906.8 ± 2 kg/m3
[1]; 323.15 K
  mass density: 902.1 ± 2 kg/m3
[1]; 328.15 K
  mass density: 897.4 ± 2 kg/m3
[1]; 333.15 K
  mass density: 892.6 ± 2 kg/m3

## CCOCCO [2-ethoxyethan-1-ol] + NCCO
[2]; 293.15 K, w2 = 0.318
  mass density: 960.2 ± 2 kg/m3
[2]; 298.15 K, w2 = 0.318
  mass density: 956 ± 2 kg/m3
[2]; 303.15 K, w2 = 0.318
  mass density: 951.7 ± 2 kg/m3
[2]; 308.15 K, w2 = 0.318
  mass density: 947.4 ± 2 kg/m3
[2]; 313.15 K, w2 = 0.318
  mass density: 943 ± 2 kg/m3
[2]; 318.15 K, w2 = 0.318
  mass density: 938.7 ± 2 kg/m3
[2]; 323.15 K, w2 = 0.318
  mass density: 934.3 ± 2 kg/m3
[2]; 328.15 K, w2 = 0.318
  mass density: 929.8 ± 2 kg/m3
[2]; 333.15 K, w2 = 0.318
  mass density: 925.4 ± 2 kg/m3

## COCCO [2-methoxyethan-1-ol]
[1]; 283.15 K
  mass density: 974.7 ± 2 kg/m3
[1]; 288.15 K
  mass density: 969.9 ± 2 kg/m3
[1]; 293.15 K
  mass density: 964.7 ± 2 kg/m3
[1]; 298.15 K
  mass density: 960.1 ± 2 kg/m3
[1]; 303.15 K
  mass density: 955.5 ± 2 kg/m3
[1]; 308.15 K
  mass density: 950.9 ± 2 kg/m3
[1]; 313.15 K
  mass density: 946.2 ± 2 kg/m3
[1]; 318.15 K
  mass density: 941.5 ± 2 kg/m3
[1]; 323.15 K
  mass density: 936.7 ± 2 kg/m3
[1]; 328.15 K
  mass density: 932 ± 2 kg/m3
[1]; 333.15 K
  mass density: 927.2 ± 2 kg/m3

## COCCO [2-methoxyethan-1-ol] + NCCO
[2]; 293.15 K, w2 = 0.31
  mass density: 985.5 ± 2 kg/m3
[2]; 298.15 K, w2 = 0.31
  mass density: 981.1 ± 2 kg/m3
[2]; 303.15 K, w2 = 0.31
  mass density: 976.8 ± 2 kg/m3
[2]; 308.15 K, w2 = 0.31
  mass density: 972.5 ± 2 kg/m3
[2]; 313.15 K, w2 = 0.31
  mass density: 968.1 ± 2 kg/m3
[2]; 318.15 K, w2 = 0.31
  mass density: 963.7 ± 2 kg/m3
[2]; 323.15 K, w2 = 0.31
  mass density: 959.2 ± 2 kg/m3
[2]; 328.15 K, w2 = 0.31
  mass density: 954.8 ± 2 kg/m3
[2]; 333.15 K, w2 = 0.31
  mass density: 950.3 ± 2 kg/m3
